Columns and labels:
aP2 mRNA in 3T3-L1 = assay: aP2 mRNA expression in differentiating 3T3-L1 preadipocytes (Light Cycler, ratio to 36B4); format: cell-based; conditions: 3T3-L1, 7 days after differentiation induction, non-treatment control = 100, average ± standard error
Experimental: (§1) (Differentiation Induction of Preadipocyte)
(§2) 1. Differentiation Induction Medium (0.25 μM DEX, 0.5 mM MIX, 10 μg/ml insulin/10% FBS/DMEM)
(§3) 55 ml of FBS (fetal bovine serum (available from GIBCO)) was added to 500 ml of DMEM (available from SIGMA) so as to prepare 10% FBS/DMEM. To this 10% FBS/DMEM, 138.75 μl of 1 mM DEX (dexamethasone)/DMSO (available from Nacalai Tesque, Inc.) and 555 μl of 10 mg/ml insulin/PBS (available from SIGMA) were added. Note here that the insulin/PBS was obtained by adding 1 N HCl to PBS in advance so as to make the solution acidic enough to allow insulin dissolution and then dissolving insulin. MIX (3-isobutyl-1-methylxanthine) (available from Nacalai Tesque, Inc.) was added to a necessary amount of the above-described medium immediately before use in such a manner as to achieve 0.5 mM concentration, thereby preparing a differentiation induction medium. Since MIX was very difficult to dissolve, it first was dissolved in a small amount of 99.5% ethanol and then added to 10% FBS/DMEM.
2. Differentiation Promotion Medium (5 μg/ml Insulin/10% FBS/DMEM) […]
Next, cultured preadipocytes 3T3-L1 were thawed, inoculated in a 100 mm dish and cultured until the 3T3-L1 cells reached about 80% confluence. […] 7 days after the initiation of the differentiation induction, mRNA was extracted using a Sepasol-RNA I Super (trade name; available from Nacalai Tesque, Inc.), and the mRNA expression amounts of 36B4, aP2 and adiponectin, which were indicators of an early period of adipocyte differentiation, were measured using a Light Cycler™.
(§4) The medium was removed from the above-described Swell plate, 1 ml of Sepasol-RNA I Super (available from Nacalai Tesque, Inc.) was added to each well, and pipetting was repeated several times so as to disperse the cells. […] The resultant precipitate (total RNA) was dried and then dissolved in 20 μl of nuclease free water, and the concentration of mRNA was measured using Nanoprop (available from SCRUM Inc.).
(§5) The extracted and measured mRNA solution was adjusted to have an mRNA concentration of 1 μg/μl. […]

[1] = system: spontaneously diabetic mice (KK-A^y); assay: adiponectin secretion amount in serum of spontaneously diabetic mice (KK-Ay), ELISA; format: in vivo
Source text: The present example verified the diabetes relieving-effect of nobiletin through an experiment using spontaneously diabetic mice (KK-A^y).
First, twelve spontaneously diabetic mice (6-week old, female) were fed preliminarily with normal diet for one week. Next, the mice were divided into two groups, namely, a control group and a NOB group (n=6) such that the average weights of these two groups were the same. Then, the mice of the control group were fed with high-fat diet only, whereas the mice of the NOB group were fed with high-fat diet containing 0.02% nobiletin. 27 days or 28 days after the initiation of feeding, serum was collected from these mice. […]
Only the strips of the antibody plates necessary for the analysis were taken out. […] Thereafter, 100 μl of the standard solutions with respective concentrations and 100 μl of the diluted specimen solutions were added to the individual wells and measured in duplicate. Note here that the standard solutions always were measured for each measurement and each plate. […] After 100 μl of the substrate solution was added to each well of the antibody plate and allowed to stand still for reaction for 15 minutes at room temperature, 100 μl of the reaction stop solution was added to each well of the antibody plate, and then the absorbance at 450 nm in each well was measured with a plate reader. […]

[2] = system: adiponectin mRNA in 3T3-L1; assay: adiponectin mRNA expression in differentiating 3T3-L1 preadipocytes (Light Cycler, ratio to 36B4); format: cell-based; conditions: for Adiponectin mRNA expression amount (ratio to 36B4): 3T3-L1, 7 days after differentiation induction, non-treatment control = 100, average ± standard error
Experimental: as §1, §2, §3
2. Differentiation Promotion Medium (5 μg/ml Insulin/10% FBS/DMEM)
A differentiation promotion medium was prepared by adding 277.5 μl of 10 mg/ml insulin/PBS to 555 ml of 10% FBS/DMEM.
Next, cultured preadipocytes 3T3-L1 were thawed, inoculated in a 100 mm dish and cultured until the 3T3-L1 cells reached about 80% confluence. A single dish of 3T3-L1 that had reached about 80% confluence was subcultured to a single 6-well plate and further cultured until the 3T3-L1 cells reached confluence in the 6-well plate, and then the medium was replaced with the differentiation induction medium, followed by differentiation induction. 48 hours later, the medium was replaced with the differentiation promotion medium, and thereafter, the medium was replaced with the differentiation promotion medium every two days. 7 days after the initiation of the differentiation induction, mRNA was extracted using a Sepasol-RNA I Super (trade name; available from Nacalai Tesque, Inc.), and the mRNA expression amounts of 36B4, aP2 and adiponectin, which were indicators of an early period of adipocyte differentiation, were measured using a Light Cycler™.
as §4, §5

[3] = target: T1, human PPARγ ligand-binding domain (Homo sapiens, UniProt P37231); assay: PPARγ ligand activity, GAL4-hPPARγ luciferase reporter assay in CV-1 cells; format: cell-based; conditions: for PPARγ ligand activity: luciferase activity relative to non-treatment control (DMSO) = 100, average ± standard error, n=4
T1 construct: expressed in transfected cells; host or cells: CV-1 cells (African green monkey kidney)
T1 sequence (P37231 204-505): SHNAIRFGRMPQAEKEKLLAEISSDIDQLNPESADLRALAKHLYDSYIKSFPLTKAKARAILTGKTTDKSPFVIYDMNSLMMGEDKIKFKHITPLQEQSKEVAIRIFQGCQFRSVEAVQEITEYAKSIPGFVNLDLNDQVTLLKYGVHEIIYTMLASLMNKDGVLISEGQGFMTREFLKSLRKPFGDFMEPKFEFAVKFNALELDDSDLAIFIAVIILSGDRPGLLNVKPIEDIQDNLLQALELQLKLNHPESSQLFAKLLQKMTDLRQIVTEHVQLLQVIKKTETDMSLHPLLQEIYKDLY
Experimental: First, CV-1 cells (cultured cells derived from kidneys of male African green monkeys) were inoculated on 24-well culture plates so as to be […] and cultured at 37° C. in 5% CO2 for 24 hours. As a medium, DMEM (Dulbecco's Modified Eagle Medium; available from GIBCO) containing 10% FBS (fetal bovine serum) and a 10 mg/ml penicillin streptomycin solution was used. Next, using the Lipofectamine system (Invitrogen Corporation), pM-hPPARγ and p4×UASg-tk-luc were transfected into the cultured CV-1 cells. The above-noted pM-hPPARγ was a vector for expressing fusion protein containing residues 1-147 of GAL4 binding domain and residues 204-505 of human PPARγ ligand-binding domain, and the above-noted p4×UASg-tk-luc was a reporter plasmid containing four copies of an upstream activating sequence (UAS) for GAL4 binding domain and a thymidine kinase gene promoter upstream of a luciferase gene. After the transfection, the cells were cultured for about 24 hours, and then, the media for the cells were changed to media containing nobiletin at respective concentrations (0.1, 1.0, and 50 μM) or media for non-treatment control, followed by an additional 24 hour culture. The above-noted media containing nobiletin were prepared by adding nobiletin dissolved in dimethyl sulfoxide (DMSO) to the media, whereas the media for non-treatment control were prepared by adding only DMSO to the media. After the culture, the cells were lysed and the measurement of luciferase activity was performed using a Dual-Luciferase
Reporter Gene Assay system (available from Promega Corporation) (Measurement Group).
Similarly to the measurement group, as a control group, the measurement of luciferase activity was performed using pM (a vector containing residues 1-147 of GAL4 binding domain and not containing residues 204-505 of PPARγ ligand-binding domain in pM-hPPARγ) instead of the pM-hPPARγ. For each sample, the ratio between average luminescence intensities of the measurement group and the control group (n=4) (measurement group/control group) was calculated, and the luciferase activity relative to the non-treatment control was determined as the PPARγ ligand-binding activity of the sample.

## COc1ccc(-c2cc(=O)c3c(OC)c(OC)c(OC)c(OC)c3o2)cc1OC [nobiletin]
aP2 mRNA in 3T3-L1; 5 μM
  aP2 mRNA expression amount (ratio to 36B4): 193.7 ± 41.4
aP2 mRNA in 3T3-L1; 10 μM
  aP2 mRNA expression amount (ratio to 36B4): 273.1 ± 13.8
aP2 mRNA in 3T3-L1; 1 μm
  aP2 mRNA expression amount (ratio to 36B4): 155.8 ± 21.7
[1]; KK-Ay mice, high-fat diet containing 0.02% nobiletin, serum 27 or 28 days after initiation of feeding, average ± standard error, n=6, control group 4.78 ± 0.096
  Adiponectin secretion amount: 7.18 ± 0.50
[1]; diabetic mice of NOB group versus control group
  adiponectin secretion amount, result in words: increase the adiponectin secretion amount in the adipocytes significantly
[2]; 5 μM
  Adiponectin mRNA expression amount (ratio to 36B4): 265.1 ± 60.4
[2]; 10 μM
  Adiponectin mRNA expression amount (ratio to 36B4): 352.3 ± 28.5
[2]; 1 μm
  Adiponectin mRNA expression amount (ratio to 36B4): 164.9 ± 18.7
[2]; 3T3-L1 cultured with nobiletin versus non-treated control medium
  secretion of adiponectin in adipocytes, result in words: enhance the secretion of adiponectin in the adipocytes significantly
[3]; 0.1 μM
  PPARγ ligand activity: 96.5 ± 10.8
[3]; 1.0 μM
  PPARγ ligand activity: 156.8 ± 11.3
[3]; 10 μM
  PPARγ ligand activity: 200.5 ± 55.1
[3]; 50 μM
  PPARγ ligand activity: 246 ± 41.7
[3]; 0.1-50 μM, versus non-treatment control
  PPARγ activity, result in words: increased significantly in keeping with the concentration of nobiletin

Reference: US20070213282A1, “Peroxisome proliferator-activated receptor (PPAR) activator, and drugs, supplements, functional foods and food additives using the same” (ARKRAY, Inc., priority 2004, published 2007)
